This passage reports IC50 results from patent US20260097047A1, “Small molecule inhibitors of the ribosome biogenesis factor NVL2” (Board of Regents, The University of Texas System, priority 2023, published 2026).

Structures are written as SMILES.

For one assay, the system named is HCT116 cells. The experiment in a line: Cell viability assay (CellTiter-Glo, 72 hours) in HCT116 human colorectal cancer cells. The format is cell-based. To be noted: Homo sapiens, HCT-116; Table 5; HCT116, 72 hours; read-out: Activity. In a few lines:
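Ten-point IC50 came from an asymmetric five-parameter fit of luminescence corrected to vehicle wells. ATP content was measured by CellTiter-Glo 72 h after dosing at 37 °C. Cells were seeded at 2,000/well the day before, with 0.5% DMSO in all wells.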
(Cellular ATP, detected with luciferase, serves as a proxy for viable cell number.)
With `CC#CCN1C(=O)c2ccccc2Sc2cc(Nc3ncc(C)cc3F)ccc21` [10-(But-2-yn-1-yl)-7-((3-fluoro-5-methylpyridin-2-yl)amino)dibenzo[b,f][1,4]thiazepin-11 (10H)-one], the IC50 was under 500 nM.

As to `CCC/C=C/CN1C(=O)c2ccccc2Sc2cc(Nc3ncccc3C)ccc21` [(E)-10-(Hex-2-en-1-yl)-7-((3-methylpyridin-2-yl)amino)dibenzo[b,f][1,4]thiazepin-11 (10H)-one], the IC50 is under 500 nM.

Consider `CC#CCN1C(=O)c2ccccc2Sc2cc(Nc3cccnn3)ccc21` [10-(But-2-yn-1-yl)-7-(pyridazin-3-ylamino)dibenzo[b,f][1,4]thiazepin-11 (10H)-one], for which the IC50 is under 500 nM.

Turning to `CCC/C=C/CN1C(=O)c2ccccc2Sc2cc(Nc3ncccc3OC)ccc21` [(E)-10-(Hex-2-en-1-yl)-7-((3-methoxypyridin-2-yl)amino)dibenzo[b,f][1,4]thiazepin-11 (10H)-one], the IC50 is 500 to 1000 nM.

For `CC#CCN1C(=O)c2ccc(F)cc2Sc2cc(Nc3ncccc3C#N)ccc21` [2-((10-(But-2-yn-1-yl)-3-fluoro-11-oxo-10,11-dihydrodibenzo[b,f][1,4]thiazepin-7-yl)amino) nicotinonitrile], the IC50 is under 500 nM.

Still in this assay, the particulars now being: Table 2; HCT116, 72 hours; read-out: Activity.
For the molecule `CC#CCN1C(=O)c2ccccc2Sc2cc(NC(=S)N3CCCC3)cnc21`, the IC50 is under 500 nM.

The assay is the same for the next values; noted with them: Table 3; HCT116, 72 hours; read-out: Activity.
With `CC#CCN1C(=O)c2ccccc2Sc2cc(NC(=O)Nc3ccc(OC)cc3)cnc21` [Table 3: —CH2CCMe; 4-MeOPh; CH/N], the IC50 was under 500 nM.

Take `CC#CCN1C(=O)c2ccccc2Sc2cc(NC(=O)Nc3ccc4oc(C)nc4c3)ccc21`: the IC50 was under 500 nM.

Still in this assay, the particulars now being: Table 4; HCT116, 72 hours; read-out: Activity.
In the case of `CC#CCN1C(=O)c2ccccc2Sc2cc(NC(=S)N[C@H]3C[C@H](O)C3)cnc21` [Table 4: —CH2CCMe; trans-3-OH-cBu; N], the IC50 was under 500 nM.

Regarding `CC#CCN1C(=O)c2ccccc2Sc2cc(NC(=S)Nc3cccc(OC)c3)ccc21` [Table 4: —CH2CCMe; 3-MeOPh; CH], the IC50 was under 500 nM.

Still in this assay, the particulars now being: Table 5; HCT116, 72 hours; read-out: Activity.
For the molecule `O=C1c2ccccc2Sc2cc(Nc3cccnn3)cnc2N1CC#CCl`, the IC50 is under 500 nM.

As for `CC=CCN1C(=O)c2ccccc2Sc2cc(Nc3ncc(C)cc3C)cnc21`, the IC50 was under 500 nM.

`CC#CCN1C(=O)c2ccccc2Sc2cc(Nc3ncccc3C)cnc21`: the IC50 was under 500 nM.

On to `CC#CCN1C(=O)c2ccccc2Sc2cc(Nc3ncccc3C(=O)OC)ccc21` [Methyl 2-((10-(but-2-yn-1-yl)-11-oxo-10,11-dihydrodibenzo[b,f][1,4]thiazepin-7-yl)amino) nicotinate], for which the IC50 lay in the range of 1000 to 5000 nM.

Take `CC=CCN1C(=O)c2ccccc2Sc2cc(Nc3ncccc3F)ccc21`: the IC50 is under 500 nM.

Staying with this assay, now noted: Table 6; HCT116, 72 hours; read-out: Activity.
In the case of `O=C1c2ccccc2Sc2cc(NC3CC4(COC4)C3)ccc2N1CC#CCl`, the IC50 is under 500 nM.

In the case of `O=C1c2ccccc2Sc2cc(NC3COC3)ccc2N1CC#CCl` [Table 6: —CH2CCCl; oxetan-3-yl; CH/CH; S], the IC50 was under 500 nM.

Still in this assay, the particulars now being: Table 7; cell viability assay, CellTiter-Glo, 72 hours; scaffold drawing 42 with R^2, R^3, X/Y, Z; read-out: Activity.
`COCCN1C(=O)c2ccccc2Sc2cc(NC(=O)c3cccc(C(=O)N(C)C)c3)ccc21` [—(CH2)2OMe; 3-Me2NC(O)Ph; CH/CH; S]: the IC50 was in the range of 500 to 1000 nM.

As for `COCCN1C(=O)c2ccccc2Sc2cc(NC(=O)c3ccc(OC)cc3)ccc21` [—(CH2)2OMe; 4-MeOPh; CH/CH; S], the IC50 is under 500 nM.

`COCCN1C(=O)c2ccccc2Sc2cc(NC(=O)C3CC34CC4)ccc21` (stereo not drawn) [—(CH2)2OMe; spiro[2.2]pentanyl; CH/CH; S]: the IC50 was 1000 to 5000 nM.

Turning to `COCCN1C(=O)c2ccccc2Sc2cc(NC(=O)c3ccno3)ccc21` [—(CH2)2OMe; isoxazol-5-yl; CH/CH; S], the IC50 was 1000 to 5000 nM.

As for `COCCN1C(=O)c2cc(F)ccc2Sc2cc(NC(=O)c3ccoc3)ccc21` [—(CH2)2OMe; furan-3-yl; CH/CF; S], the IC50 was under 500 nM.

Turning to `COCCN1C(=O)c2ccccc2Sc2cc(NC(=O)c3cccc(C(F)(F)F)c3)ccc21` [—(CH2)2OMe; 3-CF3Ph; CH/CH; S], the IC50 lay in the range of 1000 to 5000 nM.

With `COCCN1C(=O)c2ccccc2Sc2cc(NC(=O)c3ccc4ccccc4c3)ccc21` [—(CH2)2OMe; 2-naphtyl; CH/CH; S], the IC50 was 1000 to 5000 nM.

Regarding `COCCN1C(=O)c2ccccc2Sc2cc(NC(=O)c3ccc(C)cc3)ccc21` [—(CH2)2OMe; 4-MePh; CH/CH; S], the IC50 lay within 1000 to 5000 nM.

Staying with this assay, now noted: Table 8; analogs of scaffold drawing 43 defined by R^2, R^3, X/Y, W; read-out: Activity (IC50 class, cell viability assay).
For `O=C(Nc1cnc2c(c1)Sc1ccccc1C(=O)N2CC#CC1CC1)C1CCOC1` (stereo not drawn), the IC50 was under 500 nM.

In the case of `CC#CCN1C(=O)c2cc(F)ccc2Sc2cc(NC(=O)C3CC(COC)C3)cnc21` (stereo not drawn) [—CH2CCMe; 3-MeOCH2-cBu; CH/CF; N], the IC50 was under 500 nM.

With `CC#CCN1C(=O)c2ccccc2Sc2cc(NC(=O)c3ccc(OCF)cc3)ccc21` [—CH2CCMe; 4-FH2COPh; CH/CH; CH], the IC50 was under 500 nM.

In the case of `CC#CCN1C(=O)c2cc(F)ccc2Sc2cc(NC(=O)[C@H]3C[C@@H](OC)C3)cnc21` [—CH2CCMe; cis-3-MeOcBu; CH/CF; N], the IC50 was under 500 nM.

For `CC#CCN1C(=O)c2ccccc2Sc2cc(NC(=O)C3CCNC3)ccc21` (stereo not drawn) [—CH2CCMe; pyrrolidin-3-yl; CH/CH; CH], the IC50 lay in the range of 1000 to 5000 nM.

For `CC#CCN1C(=O)c2ccc(Cl)cc2Sc2cc(NC(=O)C3COC3)ccc21` [—CH2CCMe; oxetan-3-yl; CCl/CH; CH], the IC50 was under 500 nM.

In the case of `CC#CCN1C(=O)c2ccccc2Sc2cc(NC(=O)NCCOC)ccc21` [—CH2CCMe; NH(CH2)2OMe; CH/CH; CH], the IC50 is under 500 nM.

As to `CC#CCN1C(=O)c2ccc(F)cc2Sc2cc(NC(=O)c3ccc(OC)nc3)ccc21` [—CH2CCMe; 6-MeO-pyrid-3-yl; CF/CH; CH], the IC50 was under 500 nM.

On to `CON=C1CC2(C1)CC(C(=O)Nc1cnc3c(c1)Sc1ccc(F)cc1C(=O)N3CC#CC1CC1)C2` (stereo not drawn), for which the IC50 was under 500 nM.

Take `CC#CCN1C(=O)c2cc(F)ccc2Sc2cc(NC(=O)C34CC(OC)(C3)C4)cnc21`: the IC50 was under 500 nM.

As for `CC#CCN1C(=O)c2ccc(Cl)cc2Sc2cc(NC(=O)C3CCCO3)cnc21` (stereo not drawn), the IC50 was under 500 nM.

For the molecule `O=C(Nc1ccc2c(c1)Sc1cc(Cl)ccc1C(=O)N2CC#CCl)C1CC2(CC(=NO)C2)C1` (stereo not drawn), the IC50 is under 500 nM.

As for `O=C(Nc1cnc2c(c1)Sc1ccccc1C(=O)N2CC#CC1CC1)C1CC2(CC(O)C2)C1` (stereo not drawn), the IC50 was under 500 nM.

On to `CON=C1CC2(C1)CC(C(=O)Nc1cnc3c(c1)Sc1ccccc1C(=O)N3CC#CC1CC1)C2` (stereo not drawn), for which the IC50 was under 500 nM.

For `CC#CCN1C(=O)c2ccc(Cl)cc2Sc2cc(NC(=O)OCCOC)ccc21` [—CH2CCMe; O(CH2)2OMe; CCl/CH; CH], the IC50 is under 500 nM.

Turning to `CC#CCN1C(=O)c2ccccc2Sc2cc(NC(=O)C34CC(F)(C3)C4)ccc21`, the IC50 was under 500 nM.

For `COCC=CC(=O)Nc1ccc2c(c1)Sc1ccccc1C(=O)N2CC#CC(F)(F)F` [—CH2CCCF3; CH═CHCH2OMe; CH/CH; CH], the IC50 was under 500 nM.

Regarding `C#CCN1C(=O)c2ccc(Cl)cc2Sc2cc(NC(=O)C3CC4(CC(=NO)C4)C3)cnc21` (stereo not drawn), the IC50 is under 500 nM.

As for `CC#CCN1C(=O)c2ccccc2Sc2cc(NC(=O)C=CCOC)cnc21` [—CH2CCMe; CH—CHCH2OMe; CH/CH; N], the IC50 is under 500 nM.

For `CC#CCN1C(=O)c2ccc(Cl)cc2Sc2cc(NC(=O)C=CCO)ccc21` [—CH2CCMe; CH═CHCH2OH; CCI/CH; CH], the IC50 was under 500 nM.

As to `COC[C@@H]1C[C@H]1C(=O)Nc1ccc2c(c1)Sc1cc(Cl)ccc1C(=O)N2CC#CCl` (relative stereo) [—CH2CCCl; trans-2-MeOCH2-cPr; CCl/CH; CH], the IC50 was under 500 nM.

`CC#CCN1C(=O)c2ccccc2Sc2cc(NC(=O)C34CC(C)(C3)C4)cnc21`: the IC50 is under 500 nM.

In the case of `CC#CCN1C(=O)c2cc(F)ccc2Sc2cc(NC(=O)C3CC3COC)ccc21` (stereo not drawn) [—CH2CCMe; trans-2-MeOCH2-cPr; CH/CF; CH], the IC50 is under 500 nM.

In the case of `CC#CCN1C(=O)c2ccc(F)cc2Sc2cc(NC(=O)C3CC4(CC(=NO)C4)C3)cnc21` (stereo not drawn), the IC50 was under 500 nM.

Staying with this assay, now noted: Table 9; HCT116, 72 hours; read-out: Activity.
For `CC#CCN1C(=O)c2ccccc2C(C)c2cc(NC(=O)C3CCOC3)ccc21` (stereo not drawn), the IC50 is under 500 nM.

`CC#CCN1C(=O)c2ccccc2C(C)c2cc(NC(=O)C34CC(O)(C3)C4)ccc21` (stereo not drawn): the IC50 is under 500 nM.

`CC#CCN1C(=O)c2ccccc2C(C)c2cc(NC(=O)CC3COC3)ccc21` (stereo not drawn): the IC50 is under 500 nM.

Regarding `CC#CCN1C(=O)c2ccccc2C(C)c2cc(NC(=O)C3CC4(CC(O)C4)C3)ccc21` (stereo not drawn), the IC50 was under 500 nM.

Consider `COC12CC(C(=O)Nc3ccc4c(c3)C(C#N)c3ccccc3C(=O)N4CC#CC3CC3)(C1)C2` (stereo not drawn), for which the IC50 was under 500 nM.

Regarding `CO[C@H]1C[C@H](C(=O)Nc2ccc3c(c2)Cc2ccccc2C(=O)N3CC#CC2CC2)C1` [Table 9: —CH2CCCPr; trans-3-MeOcBu; CH2], the IC50 was under 500 nM.

Regarding `COCC1CC1C(=O)Nc1ccc2c(c1)C(C)(O)c1ccccc1C(=O)N2CC#CC1CC1` (racemic), the IC50 is under 500 nM.

Turning to `CC#CCN1C(=O)c2ccccc2Cc2cc(NC(=O)[C@H]3C[C@H](OC)C3)ccc21` [Table 9: —CH2CCMe; trans-3-MeOcBu; CH2], the IC50 was under 500 nM.

Consider `COCC1CC(C(=O)Nc2ccc3c(c2)Cc2ccccc2C(=O)N3CC#CC2CC2)C1` (stereo not drawn) [Table 9: —CH2CCCPr; 3-MeOCH2-cBu; CH2], for which the IC50 was under 500 nM.

On to `CC1c2ccccc2C(=O)N(CC#CC2CC2)c2ccc(NC(=O)C3COC3)cc21` (stereo not drawn) [Table 9: —CH2CC^cPr; oxetan-3-yl; CHMe], for which the IC50 was under 500 nM.

Still in this assay, the particulars now being: cell viability assay; Table 10 analogs of scaffold drawing 45 defined by R2, R3, X/Y, W; read-out: Activity.
Regarding `COCC1CC(C(=O)Nc2cnc3c(c2)Sc2ccccc2C(=O)N3CC#CC2CC2)C1` (stereo not drawn) [—CH2CCcPr; 3-MeOCH2-cBu; CH/CH; N], the IC50 is under 500 nM.
